US9364468B2, “Pharmaceutical composition for preventing or treating tuberculosis” (INDUSTRY-ACADEMIC COOPERATION FOUNDATION, YONSEI UNIVERSITY, priority 2012, dated 2016)

What was measured:
[1] = test system: Vero cell line (ATCC CCL-81); experiment: Cytotoxicity test, CellTiter 96 Non-Radioactive Cell Proliferation Assay, Vero cell line; type: cell-based; details: Chlorocebus sabaeus, 72 h, 3 days
[2] = test system: carbon monoxide dehydrogenase (CO-DH); experiment: CO-DH activity assay (INT reduction in the presence of CO, enzyme extract); type: biochemical; details: 12.5 μM compound; relative to control group set to 100%
Experimental: In order to obtain an enzyme extract to be used for the measurement of CO-DH activity, the bacteria cultured according to respective experiment conditions were collected by centrifugation at 18,000×g for 10 minutes at 4° C. (Eppendorf centrifuge-5403, Hamburg, Germany), washed twice with a 50 mM Tris-HCl (pH 7.5) buffer solution, and re-suspended in […] of a 50 mM Tris-HCl (pH 7.5) buffer solution. The suspended bacteria were homogenized at 0° C. by repeating 20 times of ultrasonication using an ultrasonic processor (Sonics & Materials Inc., Danbury, Conn.) wherein the ultrasonication was conducted such that ultrasonic wave at 20% amplitude was applied for 3 seconds and paused for 10 seconds. The homogenized culture solution was collected by centrifugation at 18,000×g for 30 minutes at 4° C. (Eppendorf centrifuge-5403), and a supernatant was used as an enzyme extract.
Proteins were quantified using bovine serum albumin (BSA) as a standard protein according to the method of Bradford (1976).
CO-DH activity was determined by measuring the reduction rate of 2-(4-indophenyl)-3-(4-nitrophenyl)-2H-tetrazolium chloride (INT, Sigma, ε496=17.981 mM^−1 cm^−1) in the presence of CO. Here, 1-methoxyphenazine methosulfate (MPMS, Sigma) was used as an electron transfer mediator between CO-DH and INT. A mixture solution of 19.2 ml of 50 mM Tris-HCl (pH 7.5), 250 μl of INT (9.8 mM), 50 μl of MPMS (8.9 mM), and 500 μl of Triton X-100 (25%, v/v) was saturated with CO gas. 800 μl of the resultant solution was added into a plastic cuvette, and then each compound was added thereto to a final concentration of 12.5 μM. Last, 800 μl of the enzyme extract was added thereto, followed by reaction at 30° C. for 200 seconds. Here, the absorbance change is due to red formazan generated resulting from INT reduction, and was measured at 496 nm by using a spectrophotometer (U-2000, Hitachi) equipped with a temperature adjuster. Enzyme specific activity was expressed as nmoles of reduced INT per mg of protein per minute (nmol/mg protein/min). The enzyme specific activity of each compound treatment group was expressed as a percentage of the control group of which enzyme specific activity was set to 100%, and the results were summarized in Table 1.

[3] = test system: marrow cell-derived macrophages; experiment: Cytotoxicity test, CellTiter 96 Non-Radioactive Cell Proliferation Assay, marrow cell-derived macrophages; type: cell-based; details: Mus musculus, Macrophage
Experimental: For preparation of mouse macrophages, the mouse femur was severed and then both ends thereof were cut. A 1-ml syringe was filled with the RPMI-1640 medium (Gibco), which was then used to isolate and take marrow cells in the femur. Blood cells were removed from the taken marrow cells by a low-osmotic buffer, and then the number of marrow cells was measured using a microscope. After appropriate dilution with the RPMI-1640 medium, the marrow cells were seeded in a 96-well microplate at 100,000 cells per well. After culturing in a CO2 incubator at 37° C. for 2 hours, cells other than the marrow cells were removed through exchange with a new RPMI-1640 medium. The medium was substituted with a culture supernatant of L929 cells, followed by culturing for 3 days. Again, the medium was substituted with a new culture supernatant of L929 cells, followed by culturing for 3 days.
Cytotoxicity was measured according to the method of Promega Inc., and 15 μl of a staining solution was applied to each well of the 96-well plate. The cells were incubated in a CO2 incubator at 37° C. for 4 hours, and then 100 μl of a quiescent solution was applied thereto. The absorbance of each well was measured at 570 nm using an absorbance measurement equipment from Molecular Devices. The absorbance values of wells not containing the compounds of Chemical Formulas 1 to 4 were compared with those of wells containing the compounds of Chemical Formulas 1 to 4 to determine the inhibition (%). The correlation between inhibition and concentration was calculated using the Prism software from Graphpad to determine IC50 (concentration at 50% inhibition) value. The marrow cell-derived macrophages were prepared by the method as described in Example 3 above.

[4] = test system: Mycobacterium sp. strain JC1 wild type; experiment: CFU inhibition of JC1 wild type by compound alone; type: cell-based; details: read-out: Compound analog + JC 1 wild type (percentage (%) of CFU inhibition)

SMILES	IC50 [1]	Inhibition of CO-DH activity [2]	IC50 [3]	inhibition at 12.5 µM [4]	inhibition at 25 µM [4]	inhibition at 50 µM [4]
COC(=O)c1ccc(Cl)cc1NC(=O)CCSc1ccccn1 [Compound 4]	158 µM	7%	> 100 µM	2%	4%	16%
COC(=O)c1ccsc1NC(=O)CSc1ccncc1 [Compound 1]	75.2 µM	48%	> 100 µM	0%	2%	6%
COC(=O)c1ccccc1NC(=O)CSc1ccccn1 [Compound 3]	109 µM	15%	> 100 µM	4%	2%	8%
COC(=O)c1ccccc1NC(=O)CSc1ccc(Br)cc1 [Compound 2]	36.4 µM	18%	> 100 µM	3%	9%	12%
